In US20240239790A1, “7-Morpholino-1,6-Naphthyridin-5-yl Derivatives and Pharmaceutical Compositions Thereof Useful as DNA-PK Inhibitor” (adMare Therapeutics Society, priority 2021, published 2024):
Read-outs that look alike come from different tables or passages of the source.

How the values were obtained:
[1] = molecular target: T1, DNA-PK phosphorylation at Serine 2056 (Homo sapiens, UniProt P78527); experiment: Cellular Assay for Inhibition of DNA-PK Phosphorylation at Serine 2056 in FaDu cells (sandwich ELISA, neocarzinostatin); type: cell-based; details: pSer2056 DNA-PK, Table 3
T1 construct: FaDu cells were purchased from ATCC; host or cells: FaDu
Outline: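 FaDu cells pre-treated with compound (0.3% DMSO) for 1 h, then neocarzinostatin 1 μg/mL final added for 2 h to induce DSBs. Protein-normalised lysates read by sandwich ELISA for total and pSer2056 DNA-PK; % inhibition normalised between DMSO and NCS controls, IC50 from variable-slope log(inhibitor) fit.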

[2] = tested on: pH2AX induction in HCT116 ATM-/- multicellular tumour spheroids; experiment: Prodrug Radiation Sensitization in Multicellular Tumour Spheroids, inhibition of pH2AX induction following radiation; type: cell-based; details: Homo sapiens, HCT-116, 20 Gy
Procedure: Prodrug compounds were assayed to determine their potency in 3D multicellular spheroids in media maintained under 20% vs 5% oxygen. Multicellular tumour spheroids were grown to approximately 0.5 mm in diameter and irradiated with 20 Gy in combination with inhibitor test compounds to determine their potency using HCT 116 and FaDu cell lines. Experiments were carried out in 96 well plates containing 0.7 mls of MEM media containing 10% FBS and 10 mM glucose under 5% CO2 at 37° C. Following dilution of compounds 1:1000 from DMSO stocks, compounds were serially diluted from 10 μM down to 3.5 nM and 5-10 spheroids added. 96 well plates were constantly stirred to avoid spheroids settling during the course of the experiment. Endpoints were pDNA-PK (ser 2056) or pH2AX (ser 139) status in spheroid cryosections taken 1 or 2 hours following radiation and fixed immediately in formalin. Using tumour cell lines deficient in ATM improved the assay signal to noise and gH2AX readout. Using this assay prodrug activity could be compared in the more oxygenated outer spheroid layers versus less oxygenated hypoxic central cell layers.

[3] = tested on: FaDu cell line; experiment: Prodrug Activation in Hypoxic Stirred Tumour Cell Suspensions; details: 10 μM, 4 hours
[4] = 5% O2, inner layers, read-out: Prodrug 5% O2 Inner layers EC50
[5] = 5% O2, outer layers, read-out: Prodrug 5% O2 Outer layers EC50
[6] = 20% O2, outer layers, read-out: Prodrug 20% O2 Outer layers EC50

Compound	IC50 [1] [µM]	EC50 [2, 4] [µM]	EC50 [2, 5] [µM]	EC50 [2, 6] [µM]	Fraction of prodrug converted to active form, Hypoxic 0.2% O2 [3]	Fraction of prodrug converted to active form, Oxic 5% O2 [3]
CC(c1cnc([N+](=O)[O-])n1C)N(c1cnc2cc(N3CCOCC3)nc(OC3CCC(Nc4ncc(N5CCN(CC(F)(F)F)CC5)cn4)CC3)c2c1)S(C)(=O)=O (stereo not drawn) [LFA2046, N-[1-(3-methyl-2-nitro-imidazol-4-yl)ethyl]-N-[7-morpholino-5-[4-[[5-[4-(2,2,2-trifluoroethyl)piperazin-1-yl]pyrimidin-2-yl]amino]cyclohexoxy]-1,6-naphthyridin-3-yl]methanesulfonamide]	10 to 30	0.5 to 1	1 to 10	1 to 10	D (D is 0 to 0.02)	D (D is 0 to 0.02)
CC(c1cnc([N+](=O)[O-])n1C)N(c1cnc2cc(N3CCOCC3)nc(OC3CCC(Nc4ncc(N5CCN(CC(F)F)CC5)cn4)CC3)c2c1)S(C)(=O)=O (stereo not drawn) [LFA2047, N-[5-[4-[[5-[4-(2,2-difluoroethyl)piperazin-1-yl]pyrimidin-2-yl]amino]cyclohexoxy]-7-morpholino-1,6-naphthyridin-3-yl]-N-[1-(3-methyl-2-nitro-imidazol-4-yl)ethyl]methanesulfonamide]	10 to 30	0.01 to 0.5	1 to 10	1 to 10	B (B is 0.05 to 0.15)	D (D is 0 to 0.02)
Cn1c(CN(c2cnc3cc(N4CCOCC4)nc(OC4CCC(Nc5ncc(N6CCN(CC(F)F)CC6)cn5)CC4)c3c2)S(C)(=O)=O)cnc1[N+](=O)[O-] (stereo not drawn) [LFA2048, N-[5-[4-[[5-[4-(2,2-difluoroethyl)piperazin-1-yl]pyrimidin-2-yl]amino]cyclohexoxy]-7-morpholino-1,6-naphthyridin-3-yl]-N-[(3-methyl-2-nitro-imidazol-4-yl)methyl]methanesulfonamide]	10 to 30	0.5 to 1	1 to 10	0.5 to 1	B (B is 0.05 to 0.15)	D (D is 0 to 0.02)
CC(Oc1cnc2cc(N3CCOCC3)nc(O[C@H]3CC[C@@H](Nc4ncc(OCCN5CCOCC5)cn4)CC3)c2c1)c1cnc([N+](=O)[O-])n1C (stereo partly drawn) [LFA2049, N-[4-[[3-[1-(3-methyl-2-nitro-imidazol-4-yl)ethoxy]-7-morpholino-1,6-naphthyridin-5-yl]oxy]cyclohexyl]-5-(2-morpholinoethoxy)pyrimidin-2-amine]	0.1 to 1	0.01 to 0.5	0.5 to 1	1 to 10	A (A is 0.15 to 1)	B (B is 0.05 to 0.15)
CC(c1cnn(C)c1[N+](=O)[O-])N(c1cnc2cc(N3CCOCC3)nc(OC3CCC(Nc4ccn5nccc5n4)CC3)c2c1)S(C)(=O)=O (stereo not drawn) [LFA2050, N-[1-(1-methyl-5-nitro-pyrazol-4-yl)ethyl]-N-[7-morpholino-5-[4-(pyrazolo[1,5-a]pyrimidin-5-ylamino)cyclohexoxy]-1,6-naphthyridin-3-yl]methanesulfonamide]	1 to 10	0.01 to 0.5	1 to 10	1 to 10	B (B is 0.05 to 0.15)	B (B is 0.05 to 0.15)
CC(c1cnc([N+](=O)[O-])n1C1CC1)N(c1cnc2cc(N3CCOCC3)nc(OC3CCC(Nc4ccn5nccc5n4)CC3)c2c1)S(C)(=O)=O (stereo not drawn) [LFA2051, N-[1-(3-cyclopropyl-2-nitro-imidazol-4-yl)ethyl]-N-[7-morpholino-5-[4-(pyrazolo[1,5-a]pyrimidin-5-ylamino)cyclohexoxy]-1,6-naphthyridin-3-yl]methanesulfonamide]	10 to 30	0.01 to 0.5	1 to 10	1 to 10	A (A is 0.15 to 1)	D (D is 0 to 0.02)
CC(c1cnn(C)c1[N+](=O)[O-])N(c1cnc2cc(N3CCOCC3)nc(O[C@H]3CC[C@@H](Nc4ncc(C#N)cn4)CC3)c2c1)S(C)(=O)=O (stereo partly drawn) [LFA2052, N-[5-[4-[(5-cyanopyrimidin-2-yl)amino]cyclohexoxy]-7-morpholino-1,6-naphthyridin-3-yl]-N-[1-(1-methyl-5-nitro-pyrazol-4-yl)ethyl]methanesulfonamide]	1 to 10	0.01 to 0.5	0.5 to 1	1 to 10	B (B is 0.05 to 0.15)	C (C is 0.02 to 0.05)
CC(c1cnc([N+](=O)[O-])n1C)N(c1cnc2cc(N3CCOCC3)nc(O[C@H]3CC[C@@H](Nc4ncc(CN5CCOCC5)cn4)CC3)c2c1)S(C)(=O)=O (stereo partly drawn) [LFA2053, N-[1-(3-methyl-2-nitro-imidazol-4-yl)ethyl]-N-[7-morpholino-5-[4-[[5-(morpholinomethyl)pyrimidin-2-yl]amino]cyclohexoxy]-1,6-naphthyridin-3-yl]methanesulfonamide]	10 to 30	0.01 to 0.5	0.5 to 1	1 to 10	B (B is 0.05 to 0.15)	D (D is 0 to 0.02)
CC(c1cnc([N+](=O)[O-])n1C)N(c1cnc2cc(N3CCOCC3)nc(O[C@H]3CC[C@@H](Nc4ncc(OCCN5CCOCC5)cn4)CC3)c2c1)S(C)(=O)=O (stereo partly drawn) [LFA2054, N-[1-(3-methyl-2-nitro-imidazol-4-yl)ethyl]-N-[7-morpholino-5-[4-[[5-(2-morpholinoethoxy)pyrimidin-2-yl]amino]cyclohexoxy]-1,6-naphthyridin-3-yl]methanesulfonamide]	10 to 30	0.01 to 0.5	0.5 to 1	10 to 100	B (B is 0.05 to 0.15)	D (D is 0 to 0.02)
CC(c1cnc([N+](=O)[O-])n1C1CC1)N(c1cnc2cc(N3CCOCC3)nc(O[C@H]3CC[C@@H](Nc4ncccn4)CC3)c2c1)S(C)(=O)=O (stereo partly drawn) [LFA2055, N-[1-(3-cyclopropyl-2-nitro-imidazol-4-yl)ethyl]-N-[7-morpholino-5-[4-(pyrimidin-2-ylamino)cyclohexoxy]-1,6-naphthyridin-3-yl]methanesulfonamide]	1 to 10	0.01 to 0.5	0.01 to 0.5	1 to 10	A (A is 0.15 to 1)	D (D is 0 to 0.02)
CC(c1cnn(C)c1[N+](=O)[O-])N(c1cnc2cc(N3CCOCC3)nc(O[C@H]3CC[C@@H](Nc4ncccn4)CC3)c2c1)S(C)(=O)=O (stereo partly drawn) [LFA2056, N-[1-(1-methyl-5-nitro-pyrazol-4-yl)ethyl]-N-[7-morpholino-5-[4-(pyrimidin-2-ylamino)cyclohexoxy]-1,6-naphthyridin-3-yl]methanesulfonamide]	1 to 10	0.01 to 0.5	0.01 to 0.5	1 to 10	C (C is 0.02 to 0.05)	C (C is 0.02 to 0.05)
Cn1ncc(CN(c2cnc3cc(N4CCOCC4)nc(O[C@H]4CC[C@@H](Nc5ncccn5)CC4)c3c2)S(C)(=O)=O)c1[N+](=O)[O-] [LFA2057, N-[(1-methyl-5-nitro-pyrazol-4-yl)methyl]-N-[7-morpholino-5-[4-(pyrimidin-2-ylamino)cyclohexoxy]-1,6-naphthyridin-3-yl]methanesulfonamide]	1 to 10	0.01 to 0.5	0.01 to 0.5	1 to 10	A (A is 0.15 to 1)	B (B is 0.05 to 0.15)
CS(=O)(=O)N(Cc1cnc([N+](=O)[O-])n1C1CC1)c1cnc2cc(N3CCOCC3)nc(O[C@H]3CC[C@@H](Nc4ncccn4)CC3)c2c1 [LFA2058, N-[(3-cyclopropyl-2-nitro-imidazol-4-yl)methyl]-N-[7-morpholino-5-[4-(pyrimidin-2-ylamino)cyclohexoxy]-1,6-naphthyridin-3-yl]methanesulfonamide]	1 to 10	0.01 to 0.5	0.01 to 0.5	1 to 10	B (B is 0.05 to 0.15)	C (C is 0.02 to 0.05)
CN1CCN(CCOc2cnc(N[C@H]3CC[C@@H](Oc4nc(N5CCOCC5)cc5ncc(N(Cc6cnc([N+](=O)[O-])n6C)S(C)(=O)=O)cc45)CC3)nc2)CC1 [LFA2059, N-[(3-methyl-2-nitro-imidazol-4-yl)methyl]-N-[5-[4-[[5-[2-(4-methylpiperazin-1-yl)ethoxy]pyrimidin-2-yl]amino]cyclohexoxy]-7-morpholino-1,6-naphthyridin-3-yl]methanesulfonamide]	1 to 10	1 to 10	1 to 10	1 to 10	B (B is 0.05 to 0.15)	D (D is 0 to 0.02)
